Experimental data as given in US6548042B2, “Bis-phosphonate compounds” (priority 2000, dated 2003).
Values joined by “and” are separate entries in the source; they are usually repeats but may differ in a detail not shown here. Equal values may be shown once.

Assays:
MT-1 cells [1] = assay: Antitumour efficacy, MT-1 skeletal metastases model in nude rats; format: in vivo; conditions: for Mean survival time: 7 days after cell injection
Method: (§1) Initially, a skeletal metastases model in nude rats, including the human breast carcinoma line MT-1 (1) was tested. A total of 1×10^6 cells were injected into the left vintricula of the heart (L.V.) of 4-5 weeks old nude rats (2). A primary osteogenic sarcoma model in nude rats, was established by intratibial (i.t.) injection of 1×10^6 OHS cells (3-5). A total of 20 animals, allocated in four groups (n=5 for each group) were used for both cell lines. The animals inoculated with MT-1 cells were treated with 200, 300 or 400 MBq/kg of 46a seven days after cell injection. The animals inoculated with OHS cells were treated with 100, 200 or 400 MBq/kg of 46a seven days after cell inoculation. The control groups (MT-1 and OHS) received saline only. Doses were corrected for the actual weight of each animal and administered by single bolus tail vein injections.
The MT-1 model simulates formation of mixed lytic/sclerotic skeletal metastasis in breast cancer patients. The model had recently been established in immuno-deficient rats by injections into the left ventricula (L.V.) of the oestrogen receptor-negative human breast cancer (MT-1) cell line.^83,84,85 In this model, large masses of tumour cells build up in the spine, replacing the normal bone marrow and eroding the bone part of the spine.
Treatment with the hydroxybisphosphonate 46a was initiated 7 days after tumour cell inoculation, while the control group received saline only. […] In comparison, the mean survival times for the animals treated with 46a were 27.5 days (range 23-29, one survivor), 29.0 days (range 27-33) and 30.6 days (range 29-33) with increasing dose of 200, 300 and 400 MBq/kg, respectively (n=5 in each group).

[2] = Biodistribution of HPLC-purified and nonpurified (crude) compound in nude rats; format: in vivo, congenitally athymic nude rats (Han rnu/rnu Rowett)
Method: Nude/nude rats with a body weight averaging 60 g were used in the biodistribution experiments. The aim of the study was to compare crude 3h with HPLC-purified 3h. The term “crude compound” refers to the diluted and neutralised labelling reaction mixture described hereinbefore. The compounds were administrated by tail vein injections of 200 μl for each animal, using three animals for each sample. 24 h after injection the animals were killed by a lethal injection and the tissue distribution determined.
Rats. […] At 24 h postinjection the animals were sacrificed, weighed and dissected.
To further evaluate the hydroxybisphosphonate 46a, biodistribution of this compound was obtained in rats. The goal of this experiment was to find whether there was a difference in the properties of the HPLC-purified compound as compared with a nonpurified sample.

MT-1 cells [3] = assay: Bone lesions to healthy bone ratio in rat inoculated with MT-1 cells (scintigraphy, Bioscope); format: in vivo; conditions: 15 MBq i.v. seven days after MT-1 inoculation, 24 h
Method: Tumour lesion to healthy bone ratio. A rat weighing 114 g was given a single bolus tail vein injection of 15 MBq (500 μl) of 46a seven days after inoculation with 1×10^6 MT-1 cells. The animal was sacrificed 24 h postinjection. The whole animal was then placed under a gamma camera and images were obtained. The spine was then excised and cut into slices of 10 μm. The slices were molded in Epon and images were obtained with a beta camera.
A prototype real time autoradiography system (Bioscope 3225, IDEAS, Høvik, Norway) consisting of a double sided multiple strip silicon detector was used to obtain images of bone slices.
In order to obtain ratios of bone cancer lesions to healthy bone, the hydroxybisphosphonate 46a was injected into a rat inoculated with MT-1 cells (a human breast cancer cell line, see section 4.2.3.1.) seven days earlier. The animal was sacrified 24 h postinjection and whole body images were obtained by means of scintigraphy. […] The radioactivity distributions in slices of the spine were then measured with a device (Bioscope) for real time autoradiography. The resulting images were automatically aligned by means of an image correlation method (Personal communication Arne Skretting, The Norwegian Radium Hospital, Oslo). Finally, the aligned images were added in layers to reconstruct the whole spine. […] Abnormal uptake was detected in one slice only. […]

OHS cells = assay: Antitumour efficacy, OHS osteogenic sarcoma model in nude rats; format: in vivo; conditions: for Mean disease-free latency: 7 days after cell inoculation
Method: as §1
The OHS model had been established by intratibial injections of the osteogenic sarcoma (OHS) cell line in immuno-deficient rats.^86,87 Eventually, the rats develop palpable tibial tumours. At the time of treatment (7 days after cell inoculation) the tumours fill approximately 50-60% of the tibial cavity and have a substantial osteoid production closely resembling that of osteoblastic osteosarcomas in the clinic.^88 The model has been used to evaluate the antitumour efficacy of several drugs currently used in the treatment of bone-related cancer.
Disease-free latency was defined as the period between tumour cell inoculation and the time the diameter of the tumour-injected tibia had increased by 2-3 mm compared with that of the non-injected contralateral leg.

[4] = Biodistribution of i.v. administered radioiodinated compounds in balb/c mice;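 further: healthy mice given radioiodinated bisphosphonic acids, with randomly chosen groups of three animals per time point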
Method: (§2) Mice. Samples of 100 μl containing 50,100, 400, 140 or 45 KBq of 31a, 34a, 46a, 67a or 72a, respectively, were injected into the tail veins as single bolus injections. […] At 0.5 h, 2 h, 5 h and 24 h postinjection times the animals were sacrificed; except in the case of the phosphate phosphonate derivative 31 were the animals were sacrificed 0.25 h, 2 h, 5 h and 24 h postinjection. Randomly selected groups of three animals were used at each time point. The whole animals were weighed and dissected. The excised organs, i.e. femur, skull, blood, heart, lung, liver, kidney, spleen, stomach, large intestine and small intestine, were weighed separately prior to counting.
(§3) Radioactivity measurements of the labelled compounds were carried out with a liquid scintillation counter (Beckman LS 6500, Beckman Instruments, USA) or with a Capintec CRC-7R radioisotope calibrator (Capintec, USA). The radioactivity level of the excised organs was measured with an automated gamma counter (LKB Wallac 1282, Turku, Finland).

[5] = mouse, in vivo
Method: as §2, §3

[6] = all animals treated (100, 200, 400 MBq/kg)
[7] = 24 h postinjection, i.v., listed as 3h

Which “Survival time, range” value (MT-1 cells [1]; 200 MBq/kg) does the source give for `O=P(O)(O)C(O)(Cc1cccc([131I])c1)P(=O)(O)O` [46a, 1-hydroxy(m-[^131I and ^125I]-iodophenyl)-ethylidene-1,1-bisphosphonic acid] here?
The value was 23 to 29 days.

And the Mean survival time (MT-1 cells [1]; 200 MBq/kg, n=5)?
The Mean survival time was 27.5 days.

What about the Long time survivors (MT-1 cells [1]; 200 MBq/kg, n=5) of the same compound?
Its Long time survivors is “one survivor”.

What about the “Survival time, range” value (MT-1 cells [1]; 300 MBq/kg) of the same compound?
Its value is 27 to 33 days.

And the Mean survival time (MT-1 cells [1]; 300 MBq/kg, n=5)?
The Mean survival time was 29.0 days.

What about the “Survival time, range” value (MT-1 cells [1]; 400 MBq/kg) of the same compound?
The value was 29 to 33 days.

What about the Mean survival time (MT-1 cells [1]; 400 MBq/kg, n=5) of the same compound?
The Mean survival time was 30.6 days.

What about the “p of increased survival time (lifetime) compared with controls” value (MT-1 cells [1]; all dose levels (200, 300, 400 MBq/kg), Wilcoxon rank-sum test, long time survivors excluded) of the same compound?
The value was < 0.05.

And the Lifetime after treatment (MT-1 cells [1]; breast cancer model)?
Its Lifetime after treatment is “increased lifetime”.

And the “Bone affinity of purified compound versus crude product” value ([2]; 24 h)?
Its value is 3 fold.

What about the Femur uptake ([2]; HPLC purified, nude/nude rats 60 g, 24 h) of the same compound?
Its Femur uptake is 1020 % g dose/g.

What about the “Femur to soft tissue ratio” value ([2]; HPLC-purified sample, 24 h) of the same compound?
The value was > 45.

And the Uptake in femur ([2]; HPLC-purified sample, 24 h)?
The Uptake in femur was 16.44±1.96 % ID/g.

What about the Uptake in kidneys ([2]; HPLC-purified sample, 24 h) of the same compound?
The Uptake in kidneys was 0.36±0.03 % ID/g.

And the Uptake in skull ([2]; HPLC-purified sample, 24 h)?
Its Uptake in skull is 5.84±0.35 % ID/g.

What about the “Uptake in femur expressed as % gram dose per gram tissue” value ([2]; Rowett rats, 60 g, 24 h) of the same compound?
Its value is 986 (Rowett rats, 60 g, 24 h) % gram dose per gram tissue.

What about the Uptake in stomach ([2]; Rowett rats, 60 g, 24 h) of the same compound?
Its Uptake in stomach is 0.05 ± 0.01 % ID/g.

What about the “Uptake in the thyroid” value ([2]; Rowett rats, 60 g, 24 h) of the same compound?
Its value is 0.02 ± 0.01 % injected dose/organ.

And the “Ratio between uptake in femur and kidney” value ([2]; Rowett rats, 60 g, 24 h, HPLC purified, listed as 1)?
The value was 24 h) and 45.7 (femur/kidney,.

What about the “Ratio between uptake in femur and kidney” value ([2]; Rowett rats, 60 g, 24 h, HPLC purified, listed as 3h) of the same compound?
The value was “above 45”.

What about the “Femur to kidney ratio” value ([2]; nonpurified sample) of the same compound?
Its value is 14.

What about the “Femur to skull ratio” value ([2]; nonpurified sample) of the same compound?
The value was ~7.

What about the “Uptake in the thyroid” value ([2]; nonpurified sample) of the same compound?
Its value is 0.03±0.01 % of the total injected radioactivity.

What about the Uptake in femur ([2]; nonpurified sample, 24 h) of the same compound?
The Uptake in femur was 5.28±1.10 % ID/g.

What about the “Bone cancer lesions to healthy bone ratio” value (MT-1 cells [3]) of the same compound?
Its value is “inconclusive”.

And the “Disease-free latency, range” value (OHS cells; 100 MBq/kg)?
Its value is 18 to 32 days.

What about the Mean disease-free latency (OHS cells; 100 MBq/kg, n=5) of the same compound?
The Mean disease-free latency was 27 days.

And the Survivors (OHS cells; 100 MBq/kg, n=5)?
Its Survivors is “one survivor”.

And the “Disease-free latency, range” value (OHS cells; 200 MBq/kg)?
The value was 26 to 36 days.

And the Mean disease-free latency (OHS cells; 200 MBq/kg, n=5)?
The Mean disease-free latency was 30 days.

What about the Survivors (OHS cells; 200 MBq/kg, n=5) of the same compound?
The Survivors was “one survivor”.

And the “Disease-free latency, range” value (OHS cells; 400 MBq/kg)?
The value was 26 to 36 days.

What about the Mean disease-free latency (OHS cells; 400 MBq/kg, n=5) of the same compound?
Its Mean disease-free latency is 31 days.

What about the “Long time survivors (>100 days)” value (OHS cells; [6]) of the same compound?
Its value is 33%.

What about the “Long time survivors (>100 days), animals” value (OHS cells; [6]) of the same compound?
Its value is 5 of 15.

What about the Long time survivors (OHS cells; highest dose, 400 MBq/kg, n=5) of the same compound?
The Long time survivors was 60%.

What about the “Long time survivors (animals)” value (OHS cells; highest dose, 400 MBq/kg, n=5) of the same compound?
The value was 3 and 3 of 5.

And the “Long time survivors (animals)” value (OHS cells; highest dose, 400 MBq/kg, n=5, listed as 1)?
The value was 3 of 5.

What about the “P of increase in disease-free latency time compared to the other groups” value (OHS cells; highest dose, Kruskal-Wallis test) of the same compound?
The value was < 05.

And the Lifetime after treatment (OHS cells; osteosarcoma model)?
Its Lifetime after treatment is “dramatic increase in lifetime”.

And the Uptake in femur ([4]; 0.5 h (30 min) postinjection, i.v.)?
The Uptake in femur was 45.03±6.75 % ID/g.

What about the Uptake in femur ([4]; 0.5 h (30 min) postinjection, i.v., listed as 3h) of the same compound?
Its Uptake in femur is 45±7 % ID/g.

What about the Activity in blood ([4]; 0.5 h postinjection, i.v.) of the same compound?
Its Activity in blood is 15.92±12.75 % ID/g.

What about the Uptake in kidneys ([4]; 0.5 h postinjection, i.v.) of the same compound?
The Uptake in kidneys was 18.64±1.78 % ID/g.

And the Uptake in skull ([4]; 0.5 h postinjection, i.v.)?
The Uptake in skull was 24.61±3.85 % ID/g.

What about the Uptake in femur ([4]; 2 h postinjection (peak), i.v.) of the same compound?
Its Uptake in femur is 45.54±4.10 % ID/g.

And the Uptake in femur ([4]; 2 h postinjection (peak), i.v., listed as 3h)?
Its Uptake in femur is 46±4 % ID/g.

And the Activity in blood ([4]; 2 h postinjection, i.v.)?
Its Activity in blood is 1.36±0.25 % ID/g.

What about the “Femur to soft tissue ratio” value ([4]; 24 h, soft tissue with highest uptake) of the same compound?
Its value is ≥ 7.

And the Uptake in femur ([4]; 24 h postinjection, i.v.)?
Its Uptake in femur is 37.79±11.78 % ID/g.

And the Uptake in kidneys ([4]; 24 h postinjection, i.v.)?
The Uptake in kidneys was 5.16±2.00 % ID/g.

What about the Uptake in liver ([4]; 24 h postinjection, i.v.) of the same compound?
Its Uptake in liver is 2.27±0.69 % ID/g.

What about the Uptake in femur [4, 7] of the same compound?
The Uptake in femur was 38±12 % ID/g.

What about the Uptake in kidneys [4, 7] of the same compound?
The Uptake in kidneys was 5±2 % ID/g.

And the Uptake in liver [4, 7]?
The Uptake in liver was 2±0.7 % ID/g.

And the “Uptake in femur expressed as % gram dose per gram tissue” value ([4]; balb/c mice, 20-25 g, 2 h, maximum uptake, listed as 1)?
Its value is 1025 (balb/c mice, 20-25 g, 2 h), % gram dose per gram tissue.

What about the Uptake in stomach ([4]; balb/c mice, 20-25 g, 24 h) of the same compound?
Its Uptake in stomach is 0.13 ± 0.01 % ID/g.

And the “Uptake in the thyroid” value ([4]; balb/c mice, 20-25 g, 24 h)?
The value was 0.06 ± 0.04 % injected dose/organ.

And the “Ratio between uptake in femur and kidney” value ([4]; balb/c mice, 20-25 g, 24 h, listed as 1)?
Its value is 7.3 (femur/kidney, balb/c mice, 20-25 g,.

What about the “Ratio between uptake in femur and kidney” value ([4]; balb/c mice, 20-25 g, 24 h, listed as 3h) of the same compound?
Its value is 7.

What about the “In vivo stability relative to compound 2 and 3” value ([4]; from thyroid and stomach uptake, Table 3) of the same compound?
The value was “about 7 times”.

What about the “Discomfort or toxicity after administration of samples” value ([4]; single bolus tail vein injection, 100 μl) of the same compound?
Its value is “No sign of discomfort or toxicity was observed”.

What about the Bone-seeking properties [5] of the same compound?
Its Bone-seeking properties is “potent bone-seekers”.
